{"source": "paper PMC5471521", "about": "“Novel selective β1-adrenoceptor antagonists for concomitant cardiovascular and respiratory disease” (The FASEB Journal, 2017)", "key": {"rat β1-AR": {"target": "T1, rat β1-AR (Rattus norvegicus, UniProt P18090)", "T1 construct": "host or cells: CHO cells, transient transfection", "T1 sequence (P18090 whole entry)": "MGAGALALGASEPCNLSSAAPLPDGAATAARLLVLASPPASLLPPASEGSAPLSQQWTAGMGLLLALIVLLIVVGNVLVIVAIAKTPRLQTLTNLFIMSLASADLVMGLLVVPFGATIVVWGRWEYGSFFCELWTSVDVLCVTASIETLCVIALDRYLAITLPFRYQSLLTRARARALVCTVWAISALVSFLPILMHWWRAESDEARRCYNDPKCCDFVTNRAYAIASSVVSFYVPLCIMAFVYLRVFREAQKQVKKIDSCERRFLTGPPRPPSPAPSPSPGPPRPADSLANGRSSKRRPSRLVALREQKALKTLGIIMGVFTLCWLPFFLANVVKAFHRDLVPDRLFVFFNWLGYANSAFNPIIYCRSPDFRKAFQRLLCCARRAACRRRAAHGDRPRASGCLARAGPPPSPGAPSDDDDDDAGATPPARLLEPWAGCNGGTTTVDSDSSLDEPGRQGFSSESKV", "assay": "3H-CGP12177 whole-cell binding in transiently transfected CHO cells", "conditions": "for Rat β1 vs. β2 selectivity Kd,ratβ2/Kd,ratβ1: from 3H-CGP12177 whole-cell binding; for Kd: transiently transfected CHO cells, mean ± SEM, read-out: Rat β1-AR Log Kd (converted)", "description": "(§1) Human bronchial smooth muscle cells were obtained from Lonza (Basel, Switzerland) and grown in manufacturer media. Rat β-AR binding experiments (DNA from cDNA Resource Centre, Bloomsburg, PA, USA) were conducted by using transiently transfected CHO cells ([44]).\n(§2) Propranolol (10 μM) defined nonspecific binding. Kd values were derived from IC50 values by using the Cheng-Prusoff equation as previously described ([11])."}, "rat β2-AR": {"target": "T2, rat β2-AR (Rattus norvegicus, UniProt P10608)", "T2 construct": "host or cells: CHO cells, transient transfection", "T2 sequence (P10608 whole entry)": "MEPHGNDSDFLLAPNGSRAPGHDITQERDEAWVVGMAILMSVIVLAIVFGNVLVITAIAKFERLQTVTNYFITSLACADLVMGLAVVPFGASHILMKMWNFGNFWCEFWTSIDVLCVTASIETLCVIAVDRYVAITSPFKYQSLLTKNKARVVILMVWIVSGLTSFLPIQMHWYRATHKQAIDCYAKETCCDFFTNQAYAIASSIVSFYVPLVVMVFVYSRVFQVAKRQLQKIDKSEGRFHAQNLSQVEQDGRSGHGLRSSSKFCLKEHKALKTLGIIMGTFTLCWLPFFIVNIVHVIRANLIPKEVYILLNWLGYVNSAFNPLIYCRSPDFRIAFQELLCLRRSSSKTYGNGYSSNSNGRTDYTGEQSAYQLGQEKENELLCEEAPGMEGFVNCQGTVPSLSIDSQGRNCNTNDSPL", "assay": "3H-CGP12177 whole-cell binding in transiently transfected CHO cells", "conditions": "transiently transfected CHO cells, mean ± SEM; cells marked ^a are apparent log Kd; read-out: Rat β2-AR Log Kd (converted)", "description": "as §1, §2"}, "human β1-AR": {"target": "T3, human β1-AR (Homo sapiens, UniProt P08588)", "T3 construct": "expressed in transfected cells", "T3 sequence (P08588 whole entry)": "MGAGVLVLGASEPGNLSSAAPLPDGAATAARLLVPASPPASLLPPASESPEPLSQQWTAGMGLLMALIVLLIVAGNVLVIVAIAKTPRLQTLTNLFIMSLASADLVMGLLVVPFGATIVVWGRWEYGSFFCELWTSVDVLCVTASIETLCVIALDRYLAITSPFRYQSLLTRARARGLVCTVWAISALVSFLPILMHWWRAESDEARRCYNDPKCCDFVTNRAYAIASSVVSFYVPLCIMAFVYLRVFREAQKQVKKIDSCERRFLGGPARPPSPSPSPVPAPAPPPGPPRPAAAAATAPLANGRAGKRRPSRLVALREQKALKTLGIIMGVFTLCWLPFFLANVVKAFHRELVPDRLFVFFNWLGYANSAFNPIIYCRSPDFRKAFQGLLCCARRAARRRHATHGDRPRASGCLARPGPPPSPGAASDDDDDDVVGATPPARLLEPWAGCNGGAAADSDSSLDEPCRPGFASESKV", "assay": "Duration of ligand binding (washout, 3H-CGP12177 whole-cell binding in CHO-β1 cells)", "conditions": "greater shift = shorter duration of binding; mean ± SEM", "description": "A method that involved ligand washout was used as described ([44]). Cells were incubated with either competing ligand and ^3H-CGP12177 for 2 h (control plate), or competing ligand alone for 2 h (duration plate). After 2 h, the control plate was processed while the duration plate was washed, and ^3H-CGP12177 alone was added to wells and incubated for a second 2 h before processing. […] Relative measures of ligand duration of binding are indicated by the degree of rightward shift of displacement curves ([44])."}, "[1]": {"assay": "Bidirectional CaCo-2 permeability", "assay_type": "in vitro ADME", "conditions": "human, hydrochloride salts used; for efflux ratio at 90 min, 20 µM: Caco-2, pH 7.4, read-out: Efflux ratio Papp, B-A/Papp, A-B; for Papp A→B at 90 min, 20 µM: Caco-2, pH 7.4, 90 min, mean ± SD", "description": "(§3) CaCo-2 cells were grown in Transwell permeable supports, and confluency was assessed by transepithelial electrical resistance measurements (>270 Ω/cm^2) and by unidirectional permeability (apical-basolateral) of the low- and high-permeability reference compounds, ^14C-mannitol and ^3H-propranolol. NDD-713.HCl and -825.HCl (20 µM in HBSS that contained 20 mM HEPES, pH 7.4) were transferred to the donor compartment of Transwell plates and the acceptor compartments were filled with blank HBSS. Permeability was determined over 90 min by sampling both compartments. Quantitation of compound concentrations in donor and acceptor samples was by liquid chromatography–mass spectrometry (LC-MS; lower limit of quantification, 0.5–1.5 ng/ml), and for ^14C-mannitol and ^3H-propranolol, by liquid scintillation counting. Apparent permeability coefficients (Papp) were calculated as follows: Papp (cm/s) = dQ/dT × 1/(C0 × A), where dQ/dt = apparent steady-state transport rate (μmol/s); C0 = initial concentration in the chamber (μmol/cm^3); and A = surface area of CaCo-2 monolayer (0.3cm^2). Efflux ratios were calculated as the ratio of mean Papp values in B→A and A→B directions. Studies were carried out by CDCO."}, "CaCo-2 cells": {"system": "CaCo-2 cells", "assay": "Bidirectional CaCo-2 permeability", "assay_type": "in vitro ADME", "conditions": "for Apical-to-basolateral membrane permeability (class in words): bidirectional CaCo-2 assay; for Mass balance A-B: hydrochloride salts used", "description": "as §3"}, "human albumin": {"target": "human albumin (Homo sapiens, UniProt P02768)", "sequence (P02768 25-609)": "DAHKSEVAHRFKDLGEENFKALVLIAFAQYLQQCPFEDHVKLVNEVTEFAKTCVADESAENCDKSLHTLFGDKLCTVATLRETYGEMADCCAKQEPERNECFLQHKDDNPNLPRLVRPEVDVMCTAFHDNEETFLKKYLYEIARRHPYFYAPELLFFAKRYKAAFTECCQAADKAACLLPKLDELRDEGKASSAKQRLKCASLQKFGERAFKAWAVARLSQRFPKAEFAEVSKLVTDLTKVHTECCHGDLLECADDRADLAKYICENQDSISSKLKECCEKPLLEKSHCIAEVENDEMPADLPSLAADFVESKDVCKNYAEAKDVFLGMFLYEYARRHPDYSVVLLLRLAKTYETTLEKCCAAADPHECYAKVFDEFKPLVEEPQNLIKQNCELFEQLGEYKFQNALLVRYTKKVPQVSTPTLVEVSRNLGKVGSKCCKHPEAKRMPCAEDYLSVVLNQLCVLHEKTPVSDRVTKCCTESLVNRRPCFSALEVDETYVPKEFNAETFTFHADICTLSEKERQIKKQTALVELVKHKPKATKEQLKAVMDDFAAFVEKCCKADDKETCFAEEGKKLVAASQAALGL", "assay": "Plasma protein binding estimated from retention on human albumin columns", "assay_type": "in vitro ADME", "conditions": "human albumin chromatography column, chromatographic estimate, read-out: Plasma protein binding PPB (converted)"}, "[2]": {"assay": "Metabolic stability, rat liver microsomes", "assay_type": "in vitro ADME", "conditions": "in the presence of NAD+, NADPH, or in the absence of cofactors", "description": "NDD-713.HCl and -825.HCl were incubated (0.02, 0.1, or 0.5 μM at 37°C, 120 min) with human (XenoTech, Kansas City, KS, USA) or rat liver microsomes (BD Biosciences, Brea, CA, USA) at 0.4 mg/ml protein concentration. Metabolic reaction was initiated by addition of NADPH-regenerating system or NADPH-regenerating system with uridine diphosphate glucuronic acid. Samples were quenched at time points by acetonitrile addition. Control samples, which contained neither NADPH, nor uridine diphosphate glucuronic acid, were monitored for degradation. Compound concentrations were determined by ultraperformance LC-MS (UPLC-MS) relative to calibration standards that were prepared in quenched liver microsomes and fitted to exponential decay functions to determine first-order rate constants (k) for substrate depletion. These were used to calculate in vitro intrinsic clearance (CLint) values: CLint = k/microsomal protein content (0.4 mg protein/ml). Metabolic stability assays that used rat liver cytosol (BD Biosciences), human cryopreserved hepatocytes, or rat hepatocytes were carried out similarly. Average viable cell concentrations were determined by Trypan Blue exclusion methods (in the absence of test compounds). Studies were carried out by CDCO."}, "HepG2 cells": {"system": "HepG2 cells", "assay": "HepG2 cytotoxicity (CellTiter-Glo)", "assay_type": "cell-based, human", "conditions": "24 h, even at the limits of aqueous solubility", "description": "Human hepatocyte carcinoma cells (HepG2; European Collection of Cell Cultures, Salisbury, United Kingdom) were grown in accordance with their guidelines by using DMEM. Cells at a density of 30,000 cells/well in 96-well plates were incubated overnight (37°C, 5% CO2 atmosphere). Medium was then removed and replaced with DMEM that contained control or compounds (1, 10, and 100 μM; n = 2 per concentration) for 24 h before addition of 100 μl/well of CellTiter-Glo Reagent (Promega, Madison, WI, USA) for ATP measurement and shaken to induce cell lysis. Luminescence was quantified on an AnalystAD plate-reader (Molecular Devices, Sunnyvale, CA, USA). Thioridizine (known HepG2 cytotoxicity) was used as positive control. Study was carried out by BioFocus DPI (Saffron Walden, United Kingdom)."}, "hERG channels": {"target": "hERG channels (Homo sapiens, UniProt Q12809)", "sequence (Q12809 whole entry)": "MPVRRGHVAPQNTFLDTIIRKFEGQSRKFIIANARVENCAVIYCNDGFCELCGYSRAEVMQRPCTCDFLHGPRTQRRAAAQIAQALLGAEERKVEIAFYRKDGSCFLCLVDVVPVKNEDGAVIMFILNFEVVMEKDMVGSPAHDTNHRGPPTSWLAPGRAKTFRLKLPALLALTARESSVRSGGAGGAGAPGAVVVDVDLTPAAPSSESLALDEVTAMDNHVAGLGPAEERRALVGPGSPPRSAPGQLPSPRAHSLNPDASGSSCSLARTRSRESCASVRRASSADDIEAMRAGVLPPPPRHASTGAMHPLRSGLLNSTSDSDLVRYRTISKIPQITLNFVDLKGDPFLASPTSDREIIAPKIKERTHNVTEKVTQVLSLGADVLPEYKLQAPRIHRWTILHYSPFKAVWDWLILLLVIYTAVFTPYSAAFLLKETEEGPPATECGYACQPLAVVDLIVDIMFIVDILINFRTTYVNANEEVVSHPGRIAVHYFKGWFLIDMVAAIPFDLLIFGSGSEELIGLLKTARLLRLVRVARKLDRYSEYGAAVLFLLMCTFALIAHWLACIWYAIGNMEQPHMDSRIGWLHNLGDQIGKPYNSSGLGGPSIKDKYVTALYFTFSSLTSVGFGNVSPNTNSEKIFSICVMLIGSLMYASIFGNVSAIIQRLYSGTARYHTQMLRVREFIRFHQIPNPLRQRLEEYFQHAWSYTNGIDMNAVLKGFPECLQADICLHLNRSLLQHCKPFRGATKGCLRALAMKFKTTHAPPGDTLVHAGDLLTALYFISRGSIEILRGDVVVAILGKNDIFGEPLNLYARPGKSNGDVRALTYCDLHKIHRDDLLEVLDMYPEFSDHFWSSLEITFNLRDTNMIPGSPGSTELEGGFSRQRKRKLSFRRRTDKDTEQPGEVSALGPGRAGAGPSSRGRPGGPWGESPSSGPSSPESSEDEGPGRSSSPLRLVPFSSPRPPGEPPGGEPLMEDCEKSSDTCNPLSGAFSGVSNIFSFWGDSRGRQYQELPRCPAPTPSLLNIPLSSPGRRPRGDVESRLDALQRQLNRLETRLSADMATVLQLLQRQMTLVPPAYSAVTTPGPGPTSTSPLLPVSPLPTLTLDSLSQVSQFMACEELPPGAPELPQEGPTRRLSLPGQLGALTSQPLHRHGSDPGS", "assay": "hERG automated patch-clamp electrophysiology", "experimental": "In addition, the potential of the compound to inhibit hERG channels was tested by using an automated patch-clamp electrophysiological assay (BioFocus, Cambridge, United Kingdom; using the Precision hERG-HEK recombinant cell line from on an Ion Works Quattro automated electrophysiology platform; Millipore, Billerica, MA, USA)."}}, "data": [{"compound": "O=C1NCc2cc(OCCNC[C@H](O)COc3ccc4c(c3)OC[C@@H](COCC3CC3)O4)ccc21", "note": "[NDD-825]", "values": [{"measurement": "Rat β1 vs. β2 selectivity Kd,ratβ2/Kd,ratβ1", "setting": "rat β1-AR", "result": 3090}, {"measurement": "Kd", "setting": "rat β1-AR", "result": 0.00427, "unit": "µM"}, {"measurement": "Kd", "setting": "rat β2-AR", "result": 13.2, "unit": "µM"}, {"measurement": "Log shift (rightward shift of washout curve vs control)", "setting": "human β1-AR", "result": "1.62 ± 0.11"}, {"measurement": "efflux ratio at 90 min, 20 µM", "setting": "[1]", "result": "< 3"}, {"measurement": "Papp A→B at 90 min, 20 µM", "setting": "[1]", "result": "6.5 ± 0.5", "unit": "×10⁻⁶ cm/s"}, {"measurement": "Apical-to-basolateral membrane permeability (class in words)", "setting": "CaCo-2 cells", "result": "intermediate"}, {"measurement": "Mass balance A-B", "setting": "CaCo-2 cells", "result": "79 ± 11", "unit": "%"}, {"measurement": "fraction unbound", "setting": "human albumin", "result": 0.265}, {"measurement": "microsomal CLint", "setting": "[2]", "result": "0.18 ± 0.2", "unit": "µL/min/mg"}, {"measurement": "Cytotoxic effects in HepG2 cell viability assay", "setting": "HepG2 cells", "result": "no cytotoxic effects"}, {"measurement": "IC50", "setting": "hERG channels", "result": "> 10", "unit": "µM"}]}, {"compound": "NC(=O)c1ccc(OCCNC[C@H](O)COc2ccc3c(c2)OC[C@@H](COCC2CC2)O3)cc1", "note": "[NDD-713]", "values": [{"measurement": "Rat β1 vs. β2 selectivity Kd,ratβ2/Kd,ratβ1", "setting": "rat β1-AR", "result": 2188}, {"measurement": "Kd", "setting": "rat β1-AR", "result": 0.00851, "unit": "µM"}, {"measurement": "Kd", "setting": "rat β2-AR", "result": 18.6, "unit": "µM"}, {"measurement": "Log shift (rightward shift of washout curve vs control)", "setting": "human β1-AR", "result": "1.75 ± 0.08"}, {"measurement": "efflux ratio at 90 min, 20 µM", "setting": "[1]", "result": "< 3"}, {"measurement": "Papp A→B at 90 min, 20 µM", "setting": "[1]", "result": "25 ± 4", "unit": "×10⁻⁶ cm/s"}, {"measurement": "Apical-to-basolateral membrane permeability (class in words)", "setting": "CaCo-2 cells", "result": "high"}, {"measurement": "Mass balance A-B", "setting": "CaCo-2 cells", "result": "76 ± 10", "unit": "%"}, {"measurement": "fraction unbound", "setting": "human albumin", "result": 0.365}, {"measurement": "microsomal CLint", "setting": "[2]", "result": "< 0.1", "unit": "µL/min/mg"}, {"measurement": "Cytotoxic effects in HepG2 cell viability assay", "setting": "HepG2 cells", "result": "no cytotoxic effects"}, {"measurement": "IC50", "setting": "hERG channels", "result": "> 10", "unit": "µM"}]}]}
